Tests used:
human washed platelets [1] = test: Platelet intracellular Ca2+ release assay (Fluo-3AM); type: cell-based; settings: collagen (10 μg/mL)- and convulxin (5 ng/mL)-induced
Procedure: The assay was performed as previously reported with minor modifications ([Arthur et al., 2012]; [Ye et al., 2020]). Briefly, WPs (500 × 10^9/L) were labeled with 5 μM Fluo-3AM (Cat No. IF0150; Solarbio) or 10 μM DCFH-DA (Cat No. D6883; Sigma, St. Louis, MO, United States) at 37°C for 30 min protected from light. […] In addition, 1 mM CaCl2 and collagen or convulxin were added to start the reaction. Ca^2+ release and ROS production were analyzed using a Fluoroskan Ascent fluorometer (Thermo Fisher, Waltham, Massachusetts, US) at excitation (ex)/emission (em) = 490/530 nm, and the curves were plotted in real-time.

carotid thrombosis = test system: carotid thrombosis; parameters: method as in Choi et al. (2015); settings: mice; ref Choi et al. (2015); cited from earlier work
[2] = Luteolin in vivo toxicity experiments (15 days i.p.); parameters: species or system C57BL/6 mice
Procedure: Blood was collected from the orbits every 3 days for blood tests. On the second day, after 15 days of intraperitoneal administration, pentobarbital (45 mg/kg) was injected intraperitoneally for anesthesia, and blood was sampled from the eyes. Whole blood was left for 30–60 min, and the supernatant was centrifuged at 3,000 rpm for serum liver and kidney function testing using Unicel DxC600 (Beckman Coulter, Inc. Brea, California, US). Finally, the mice were sacrificed by cervical dislocation, and the sternum was fixed in 4% paraformaldehyde. […]

human washed platelets [3] = test: Clot retraction experiment; type: cell-based; settings: luteolin 100 μM; 0.1 U/mL thrombin
Procedure: Clot retraction experiments were completed using the previously reported method ([Zhang et al., 2015]). […] Then, 200 μL of WPs were placed in a siliconized glass tube with 1 mM CaCl2, 0.1 U/mL thrombin, and 10 µL PPP, mixed well, and left at 37°C. Pictures were taken every 5 min. The clot size was calculated using ImageJ software.

human platelets = settings: cited from earlier work
human washed platelets [4] = test: Platelet-collagen static adhesion assay; type: cell-based
Procedure: As previously reported ([Banfi et al., 2022]), 50 μg/mL collagen and 25 μg/mL fibrinogen (Cat No. F3879-100 MG; Sigma-Aldrich, St. Louis, MO, United States) were used to coat coverslips overnight at 4°C. […] The coated slides were washed three times with PBS and blocked with 1% BSA (prepared in PBS) for 1 h at room temperature. The blocking solution was removed, and WPs were added for adhesion experiments. The WPs were allowed to adhere to the slides for 15–60 min at 37°C. The unadhered platelets were removed by PBS. The platelets were fixed with 2% paraformaldehyde solution for 15 min, broken using 1% Triton-100 for 5 min, and stained with phalloidin (1:1,000, Cat No.17466-45-4, Sigma-Aldrich) for 30 min away from light at room temperature. The platelet morphology was observed using an Olympus ix73 microscope (Olympus Corp., Shinjuku, Japan) and photographed. The number of platelet adhesions and spreading area were analyzed and calculated using ImageJ software.

[5] = luteolin 35 μM/kg i.p. daily for 15 days
[6] = luteolin 35 μM/kg i.p. daily, 15 days, mean ± SEM

For `O=c1cc(-c2ccc(O)c(O)c2)oc2cc(O)cc(O)c12` [Luteolin], the platelet calcium release (human washed platelets [1]) is given as “dose-dependently inhibited”, the FeCl3-induced carotid thrombosis (carotid thrombosis) is given as “significantly inhibits” and the “liver and kidney functions” value ([2]; luteolin 35 μM/kg for 15 days) is given as “normal”. The “mean platelet volume vs DMSO” value [2, 5] was “no significant differences”, the “megakaryocyte counts in bone marrow vs DMSO” value [2, 5] was “no significant differences” and the “peripheral platelet count vs DMSO” value [2, 5] was “no significant differences”. It also gave an Alanine aminotransferase [2, 6] of 66.21 ± 5.35 U/L, an Alkaline phosphatase [2, 6] of 75.00 ± 7.34 U/L and an Aspartate aminotransferase [2, 6] of 147.20 ± 7.03 U/L. The Blood urea nitrogen [2, 6] was 10.14 ± 0.40 mmol/L, the Creatinine [2, 6] was 17.22 ± 2.61 µmol/L and the Granulocyte % [2, 6] was 25.22 ± 0.74%. For the same compound, the Granulocytes [2, 6] was 0.36 ± 0.03 ×10^9/L, the Lymphocyte % [2, 6] was 57.39 ± 1.59% and the Lymphocytes [2, 6] was 0.80 ± 0.04 ×10^9/L. For the same compound, the Monocyte % [2, 6] was 17.39 ± 1.56%, the Monocytes [2, 6] was 0.25 ± 0.04 ×10^9/L and the Red blood cells [2, 6] was 0.65 ± 0.03 ×10^12/L. The Total bilirubin [2, 6] was 5.24 ± 0.49 µmol/L, the White blood cells [2, 6] was 1.35 ± 0.10 ×10^9/L and the γ-glutamyl transferase [2, 6] was 6.20 ± 1.24 U/L. The “toxic effects in C57BL/6 mice” value ([2]; mouse, in vivo) was “no significant toxic effects”, the thrombin-induced clot retraction (human washed platelets [3]) was “inhibited” and the IC50 (human platelets; 2 μM U46619, ref Guerrero et al., 2005, read-out: IC50, inhibition of U46619-induced platelet aggregation) was 47 ± 13.3 µM. The “ADP induced platelet aggregation” value (human platelets; 25–100 μM luteolin, 1 h incubation, ref Lu et al., 2021) was “inhibited”, the “collagen, U46619, and ADP-induced activation in human platelets” value (human platelets; ref Guerrero et al., 2005, Guerrero et al., 2007, Lu et al., 2021) was “significantly inhibits” and the “adherent area vs vehicle” value (human washed platelets [4]; luteolin 25 µM, at 15, 30, 45, and 60 min) was “decreased”. For the same compound, the “surface per platelet vs vehicle” value (human washed platelets [4]; luteolin 25 µM, at 15, 45, and 60 min) was “decreased”, the “surface per platelet vs vehicle” value (human washed platelets [4]; luteolin 2.5 and 10 µM, at 15 and 45 min) was “decreased” and the “adherent area vs vehicle” value (human washed platelets [4]; luteolin 2.5 and 10 µM, at 60 min) was “slightly decreased”. For the same compound, the “platelet adherence (number of adherent platelets) on collagen vs vehicle” value (human washed platelets [4]; luteolin 10 and 25 µM, at 45 and 60 min) was “significantly decreased”.

— paper PMC10644720 (Frontiers in Pharmacology, 2023)
